Source: publication PMC7352571, “New Anti-Cancer Strategy to Suppress Colorectal Cancer Growth Through Inhibition of ATG4B and Lysosome Function” (Cancers, 2020)

How the values were obtained:
MGC803 cells = assay: CCK-8 cell viability assay, MGC803; type: cell-based; settings: Homo sapiens, MGC-803; CCK-8 assay, 48 h
Experimental: (§1) Cells were seeded and incubated overnight in 96-well plates at a density of 5 × 10^3 cells/well. […] A total of 10 µL CCK-8 were added to each well for additional 1 h and cell viability was measured by CCK-8 assay. Absorbance was measured at 450 nm. The IC50 values were calculated by GraphPad Prism 7 (GraphPad Software Inc., San Diego, CA, USA).

T98G cells = assay: CCK-8 cell viability assay, T98G; type: cell-based; settings: Homo sapiens, CCK-8 assay, 48 h
Experimental: as §1

GFP-LC3 A549 cells = assay: GFP-LC3 dots in A549 cells stably expressing GFP-LC3; type: cell-based; settings: 6 h at different concentrations or 10 µM over time course
[1] = test system: lysosome acidity in HeLa cells; assay: LysoTracker Red (LTR) assay, HeLa; type: cell-based; settings: 6 h, 163N 5 or 10 µM, Rap 1 µM, E64D 25 µM plus pepstatin A 50 µM
Experimental: Figure 5 163N causes lysosome dysfunction. […] (C) HeLa cells were treated with or without 163N (10 µM) for 6 h, followed by immunostaining using cathepsin B and LAMP1 antibody. The colocalization of cathepsin B and LAMP1 was measured.
LTR assay: cells were incubated with LTR (25 nM) in HBSS medium at 37° for 30 min, and then fluorescence microscopy was used for detecting fluorescence intensity.

[2] = test system: proteolytic activity of lysosomes in HeLa cells; assay: DQ-BSA Red assay; type: cell-based; settings: 6 h, 163N 5 or 10 µM, Baf 0.5 µM, E64D 25 µM plus pepstatin A 50 µM
Experimental: Figure 5 163N causes lysosome dysfunction. […] . (C) HeLa cells were treated with or without 163N (10 µM) for 6 h, followed by immunostaining using cathepsin B and LAMP1 antibody. The colocalization of cathepsin B and LAMP1 was measured.
DQ-BSA Red assay: cells were incubated with 10 µg/mL DQ-BSA Red in EBSS medium at 37° for 1.5 h, and then new medium with or without the indicated compounds were added for another 4 or 6 h, and then fluorescence microscopy was used for detecting the intensity of red fluorescent.
Supplementary Materials: New Anti-Cancer Strategy
to Suppress Colorectal Cancer Growth Through
Inhibition of ATG4B and Lysosome Function
Figure S1. Compounds with a 6-methylpyrimidine-2,4-diamine structure could cause lysosome
inhibition. (A) The structure of the representative lysosome inhibitors. (B) GFP-LC3B HeLa cells were
treated with Baf (0.5 µM) or 5 µM of different lysosome inhibitors for 2 h, then LysoTracker Red (LTR,
25 ng/mL) was used and the relative LTR fluorescent intensity was measured. (C) HeLa cells were
firstly treated with 10 µg/mL DQ-BSA for 1.5 h, and then treated with Rap (1 µM), Baf (0.5 µM), E64D
(25 µM) plus pepstatin A (50 µM), or 5 µM of different lysosome inhibitors for 4 h.
Cancers 2020, 12, x; www.mdpi.com/journal/ cancers […]

HCT116 cells [3] = assay: real-time cellular analysis (RTCA); type: cell-based, Human; settings: 2 µM, wild type HCT116
Experimental: An E-Plate 16 (ACEA Biosciences, Hangzhou, China) was prepared with 50 µL of DMEM medium added to each well to do a background measurement in the xCELLigence instrument (ACEA Biosciences, China). 100 µL of passaged cell suspensions containing 2.5 × 10^3 cells were added to each well and then cells were settled on the base of the well for 30 min at room temperature. The plate was inserted into the RTCA system (housed within the incubator) and cell index (CI) values were assessed every 5 min over the following 72 h. After 24 h of cell seeding, the assay was paused and 2 µM 163N was added to each well. Then, the plate was placed in the station again and the analysis was restarted. After completing a total of 72 h of analysis, the data were analyzed with GraphPad 7.0 software.

HCT116 cells [4] = assay: wound healing assay; type: cell-based, Human; settings: 10 µM, 48 h
Experimental: Cells were seeded in 12-well plates. After the cells grew to confluence, wounds were made by sterile pipette tips. The cells were photographed at the beginning of wound formation. […] The distance of cell migration was calculated from three independent experiments.

HCT116 xenograft = assay: HCT116 mouse xenograft model; type: in vivo, mice
Experimental: Figure 7 163N inhibits tumor growth in a HCT116 mouse xenograft model. (A) HCT116 cells ([…]) were injected subcutaneously into the right flank of the immunodeficient nu/nu female mice. Seven days after tumor cell implantation, mice with palpable tumors were divided randomly into two groups and injected intraperitoneal on Monday, Wednesday, and Friday with either corn oil vehicle or 163N (50 mg/kg). Tumor volumes were calculated by the length and width measured by Vernier calipers every 2 d. (B) Body weight changes of mice during 28 d of exposure. (C) Tumor tissues were sectioned and subjected to H&E staining and immunohistochemistry for evaluating histological morphology, and expression of LC3B and SQSTM1. Scale bar: 50 µm. (D) TEM was used to detect the ultrastructure of the representative tumor tissues. Red arrows represent normal autolysosome structures. Data are presented as mean ± SEM. ** p < 0.01 vs VC.
The animal experimental procedures were approved by the Research Ethics Committee of Sun Yat-sen University (Guangzhou, China), ethic code: SYSU-IACUC-2018-000134. Four-week-old immunodeficient mice (nu/nu, female) were raised in a pathogen-free environment in the Experimental Animal Center of Sun Yat-sen University. Human colorectal cancer HCT116 cells (3 × 10^6) were injected subcutaneously into the right flank of the animals. Seven days after tumor cell implantation, mice with palpable tumors were divided randomly into two groups and injected intraperitoneal on Monday, Wednesday, and Friday of the following treatments: (1) vehicle control (corn oil); (2) 163N (50 mg/kg body weight) dissolved in corn oil. Tumors were measured using calipers and the tumor volume (mm^3) was calculated as follows: V = (L × W2)/2, L and W represents tumor length and width, respectively. At the end of the experiment (5 weeks after tumor implantation), the mice were given 200 µL of pentobarbital sodium (1%) by i.p. 30 min before sacrifice, tumors and organs were collected and weighed.

SQSTM1 in HeLa cells = assay: immunostaining of SQSTM1 dots; settings: 10 µM, 6 h
ATG4A = ATG4A (Homo sapiens, UniProt Q8WYN0); assay: FRET-based assay for ATG4A activity
Sequence of ATG4A (Q8WYN0 whole entry, species assumed): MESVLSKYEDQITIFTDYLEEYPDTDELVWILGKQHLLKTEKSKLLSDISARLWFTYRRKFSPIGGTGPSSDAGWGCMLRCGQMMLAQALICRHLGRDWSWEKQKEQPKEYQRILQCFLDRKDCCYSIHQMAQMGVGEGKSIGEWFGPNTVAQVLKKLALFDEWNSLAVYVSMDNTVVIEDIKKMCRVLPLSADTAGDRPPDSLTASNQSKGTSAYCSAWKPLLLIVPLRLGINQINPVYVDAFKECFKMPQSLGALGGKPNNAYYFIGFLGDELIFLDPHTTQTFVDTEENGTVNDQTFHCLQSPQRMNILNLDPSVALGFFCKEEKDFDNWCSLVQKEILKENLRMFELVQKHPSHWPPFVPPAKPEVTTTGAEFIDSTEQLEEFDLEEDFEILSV
Experimental: A FRET-based assay for detecting ATG4B activity was carried out as described [45].

Structure (SMILES): COc1ccc(Nc2cc(C)nc(Nc3ccc(-c4cc5ccccc5o4)cc3)n2)cc1 [Compound 163N]
- IC50 (MGC803 cells): 9.33 µM
- IC50 (T98G cells): 7.23 µM
- GFP-LC3 dots (GFP-LC3 A549 cells): accumulation of GFP-LC3 dots in dose- and time-dependent manners
- LTR red fluorescence / acidic vesicles [1]: significant reduction in acidic vesicles
- dequenching of DQ-BSA (proteolytic activity of lysosome) [2]: nearly no dequenching of DQ-BSA
- cytotoxic effect in RTCA (HCT116 cells [3]): significant cytotoxic effects
- migration of wild type HCT116 cells (HCT116 cells [4]): significantly inhibited the migration
- LC3B and SQSTM1 in tumor tissue by immunohistochemistry (HCT116 xenograft; 50 mg/kg intraperitoneal): increased levels of LC3B and SQSTM1
- tumor growth (HCT116 xenograft; 50 mg/kg intraperitoneal Mon/Wed/Fri, nu/nu female mice, vs vehicle): less prominent
- body weight (HCT116 xenograft; 50 mg/kg intraperitoneal, 28 d, vs vehicle): no significant changes in body weight
- weight index and morphology of heart, liver, spleen, lung, kidney (HCT116 xenograft; 50 mg/kg intraperitoneal, vs vehicle): no significant changes in weight index
- degradation of autophagic substrate SQSTM1 (SQSTM1 in HeLa cells): significantly attenuated the degradation of the autophagic substrate SQSTM1
- IC50 (ATG4A): 53.7 µM
